Measured values taken from patent publication US20250345378A1 (priority 2022, published 2025).
Read-outs that look alike come from different tables or passages of the source.

Columns and labels:
[1] = system: 88 urinary tract infection E. coli isolates; assay type: cell-based, Escherichia coli; conditions: for Host Range % on MDR Subset (n = 21), Combination: Antibiotic + LBP-EC01 v.2 / Host Range % on all Strains (n = 88), Combination: Antibiotic + LBP-EC01 v.2 / Host Range % on Beta-lactam-Resistant Subset (n = 31), Combination: Antibiotic + LBP-EC01 v.2: antibiotic combined with LBP-EC01 v.2; for Host Range % on all Strains (n = 88), Combination: Antibiotic + CK618 v.2: antibiotic at breakpoint concentration plus cocktail 1 × 10^6 PFU/ml per bacteriophage
Method: (§1) Phage cocktail CK618 was tested in combination with and alongside antibiotics against two isolate panels. The first assay used a panel of 88 contemporaneous urinary tract infection (UTI) isolates from North America, Europe, Latin America, and Asia. […] The second assay used a panel made up of a 300-strain clinical isolate panel (Table 14) with an additional 4 strains of interest. […] Four of the same SOC antibiotics tested against the 88-isolate panel were tested against this panel. The non-SOC antibiotics were not included due to their limited use in clinical settings, and nitrofurantoin was not included due to the low probability of resistance to this drug.
(§2) For both isolate panels, antibiotic concentrations tested were determined by using Clinical and Laboratory Standards Institute (CLSI) or European Committee on Antimicrobial Susceptibility Testing (EUCAST) breakpoints at concentrations that kill susceptible isolates but allow intermediate or resistant isolates to grow in the standard AST microdilution assay (Table 17).
(§3) The composition of the proposed Phase 2 CRISPR-enhanced bacteriophage (CRISPR-phage, hereafter termed ‘crPhage’) cocktail (CK618) has been updated from the CK570 to include six bacteriophages as compared to three bacteriophages in CK570. Bacteriophage cocktail CK618, was prepared such that all bacteriophages had equivalent titers in the final cocktail. The cocktail was then mixed with bacteria to obtain final titers of 1×10^6 plaque-forming unit (PFU)/mL/phage for the cocktail and 1×10^5 colony-forming unit (CFU)/mL for the bacteria, resulting in a multiplicity of infection (MOI) of 10 for each bacteriophage in a sample. Briefly, 5 μl of each sample (CK618 alone, CK618 and antibiotics, antibiotics alone, or medium alone) was added to 5 μl of optical density (OD)-normalized bacterial isolate and 40 μl LB medium. Reactions were incubated at 37° C. with shaking and OD measurements were taken each hour for 20 hours.
(§4) Host range percentage is the percent of isolates that responded to treatment of antibiotics or CK618. In the case of the 88-isolate panel, results were analyzed on the complete panel as well as the subset of classified as multidrug-resistant (MDR) (n=21) and beta-lactam-resistant (n=31).
(§5) The first assay used a panel of 88 contemporaneous isolates. Twenty-one of those strains are classified as MDR, with resistance to 3 or more antibiotic classes. […] The second assay used the panel made up of a 300-strain clinical isolate panel with an additional 4 strains of interest.
(§6) Antibiotic concentrations tested were determined by using CLSI or EUCAST breakpoints at concentrations that kill susceptible strains but allow intermediate or resistant strains to grow in the standard AST microdilution assay (Table 27). LBP-EC01 v.2 was combined with bacteria resulting in a MO of 10 for each bacteriophage in a sample. In the case of the 88-isolate panel, results were analyzed on the complete panel as well as the subset of isolates classified as multidrug-resistant (MDR) (n=21) and beta-lactam-resistant (n=31).

[2] = system: 304 E. coli clinical isolates; assay type: cell-based, Escherichia coli
Method: as §1, §2, §3, §4, §5, §6

[3] = 88-isolate panel, listed as Fosfomycin 8
[4] = 88-isolate panel, listed as Fosfomycin 64

In the case of `O=C1CN(/N=C/c2ccc([N+](=O)[O-])o2)C(=O)N1` [Nitrofurantoin], the “Host Range % on Beta-lactam-Resistant Subset (n = 31), Combination: Antibiotic + CK618 v.2” value ([1]; 88-isolate panel) is reported as 97.8%, the “Host Range % on Beta-lactam-Resistant Subset (n = 31), Single agent treatment” value (from here on “Host Range % … (n = 31), Single agent treatment”) ([1]; 88-isolate panel) is reported as 90.3% and the “Host Range % on MDR Subset (n = 21), Combination: Antibiotic + CK618 v.2” value ([1]; 88-isolate panel) is reported as 98.4%. The “Host Range % on MDR Subset (n = 21), Single agent treatment” value ([1]; 88-isolate panel) was 85.7%, the “Host Range % on MDR Subset (n = 21), Combination: Antibiotic + LBP-EC01 v.2” value ([1]; 88-isolate panel, MDR subset) was 98.4% and the “Host Range % on MDR Subset (n = 21), Single agent treatment” value ([1]; 88-isolate panel, MDR subset, single agent) was 85.7%. The “Host Range % on all Strains (n = 88), Combination: Antibiotic + LBP-EC01 v.2” value ([1]; 88-isolate panel, all strains) was 93.9%, the “Host Range % on all Strains (n = 88), Single agent treatment” value ([1]; 88-isolate panel, all strains, single agent) was 83.0% and the “Host Range % on Beta-lactam-Resistant Subset (n = 31), Combination: Antibiotic + LBP-EC01 v.2” value ([1]; 88-isolate panel, beta-lactam-resistant subset) was 97.8%. The “Host Range % … (n = 31), Single agent treatment” value ([1]; 88-isolate panel, beta-lactam-resistant subset, single agent) was 90.3%, the “Host Range % on all Strains (n = 88), Single agent treatment” value ([1]; antibiotic at breakpoint concentration (Table 17), cocktail 1 × 10^6 PFU/ml per bacteriophage, MOI 10) was 83.0% and the “Host Range % on all Strains (n = 88), Combination: Antibiotic + CK618 v.2” value [1] was 93.9%.
In the case of `C[C@@H]1O[C@@H]1P(=O)(O)O` [Fosfomycin], the “host range performance compared with antibiotics / combination (in words)” value ([2]; 88- and 304-isolate panels, all, MDR and beta-lactam-resistant strains) is reported as “strong activity across all strains”, the “Host range % on MDR subset (n = 93), Combination: Antibiotic + LBP-CK618” value ([2]; 304-isolate panel) is reported as 96.8% and the “Host range % on MDR subset (n = 93), Single agent treatment” value ([2]; 304-isolate panel) is reported as 83.9%. For the same compound, the “Host range % on beta-lactam-resistant subset (n = 91), Combination: Antibiotic + LBP-CK618” value ([2]; 304-isolate panel) was 96.7%, the “Host range % on beta-lactam-resistant subset (n = 91), Single agent treatment” value ([2]; 304-isolate panel) was 86.8% and the “Host Range % on MDR Subset (n = 93), Combination Antibiotic + LBP-EC01 v.2” value ([2]; 304-isolate panel, MDR subset, antibiotic combined with LBP-EC01 v.2) was 96.8%. For the same compound, the “Host Range % on all Strains (n = 304), Combination: Antibiotic + LBP-EC01 v.2” value ([2]; 304-isolate panel, all strains, antibiotic combined with LBP-EC01 v.2) was 97.0%, the “Host Range % on all Strains (n = 304), Single agent treatment” value ([2]; 304-isolate panel, all strains, single agent) was 87.5% and the “Host Range % on Beta-lactam-Resistant Subset (n = 91), Combination: Antibiotic + LBP-EC01 v.2” value ([2]; 304-isolate panel, beta-lactam-resistant subset, antibiotic combined with LBP-EC01 v.2) was 96.7%. For the same compound, the “Host range % on beta-lactam-resistant subset (n = 91), Single agent treatment” value ([2]; 304-isolate panel, beta-lactam-resistant subset, single agent) was 86.8%, the “Host Range % on MDR Subset (n = 21), Combination: Antibiotic + LBP-EC01 v.2” value ([1]; 88-isolate panel, MDR subset, listed as Fosfomycin 8) was 95.2% and the “Host Range % on MDR Subset (n = 21), Combination: Antibiotic + LBP-EC01 v.2” value ([1]; 88-isolate panel, MDR subset, listed as Fosfomycin 64) was 100.0%. The “Host Range % on MDR Subset (n = 21), Single agent treatment” value ([1]; 88-isolate panel, MDR subset, single agent, listed as Fosfomycin 8) was 90.5%, the “Host Range % on MDR Subset (n = 21), Single agent treatment” value ([1]; 88-isolate panel, MDR subset, single agent, listed as Fosfomycin 64) was 96.8% and the “Host Range % on all Strains (n = 88), Combination: Antibiotic + LBP-EC01 v.2” value ([1]; 88-isolate panel, all strains, listed as Fosfomycin 8) was 93.9%. For the same compound, the “Host Range % on all Strains (n = 88), Combination: Antibiotic + LBP-EC01 v.2” value ([1]; 88-isolate panel, all strains, listed as Fosfomycin 64) was 98.5%, the “Host Range % on all Strains (n = 88), Single agent treatment” value ([1]; 88-isolate panel, all strains, single agent, listed as Fosfomycin 8) was 85.2% and the “Host Range % on all Strains (n = 88), Single agent treatment” value ([1]; 88-isolate panel, all strains, single agent, listed as Fosfomycin 64) was 93.2%. The “Host Range % on Beta-lactam-Resistant Subset (n = 31), Combination: Antibiotic + LBP-EC01 v.2” value ([1]; 88-isolate panel, beta-lactam-resistant subset, listed as Fosfomycin 8) was 94.6%, the “Host Range % on Beta-lactam-Resistant Subset (n = 31), Combination: Antibiotic + LBP-EC01 v.2” value ([1]; 88-isolate panel, beta-lactam-resistant subset, listed as Fosfomycin 64) was 100.0% and the “Host Range % … (n = 31), Single agent treatment” value ([1]; 88-isolate panel, beta-lactam-resistant subset, single agent, listed as Fosfomycin 8) was 87.1%. For the same compound, the “Host Range % … (n = 31), Single agent treatment” value ([1]; 88-isolate panel, beta-lactam-resistant subset, single agent, listed as Fosfomycin 64) was 95.7%, the “Host Range % on Beta-lactam-Resistant Subset (n = 31), Combination: Antibiotic + CK618 v.2” value [1, 3] was 94.6% and the “Host Range % … (n = 31), Single agent treatment” value [1, 3] was 87.1%. For the same compound, the “Host Range % on MDR Subset (n = 21), Combination: Antibiotic + CK618 v.2” value [1, 3] was 95.2%, the “Host Range % on MDR Subset (n = 21), Single agent treatment” value [1, 3] was 90.5% and the “Host Range % on Beta-lactam-Resistant Subset (n = 31), Combination: Antibiotic + CK618 v.2” value [1, 4] was 100.0%. The “Host Range % … (n = 31), Single agent treatment” value [1, 4] was 95.7%, the “Host Range % on MDR Subset (n = 21), Combination: Antibiotic + CK618 v.2” value [1, 4] was 100.0% and the “Host Range % on MDR Subset (n = 21), Single agent treatment” value [1, 4] was 96.8%. For the same compound, the “Host Range % on all Strains (n = 88), Single agent treatment” value ([1]; antibiotic at breakpoint concentration (Table 17), cocktail 1 × 10^6 PFU/ml per bacteriophage, MOI 10, listed as Fosfomycin 8) was 85.2%, the “Host Range % on all Strains (n = 88), Single agent treatment” value ([1]; antibiotic at breakpoint concentration (Table 17), cocktail 1 × 10^6 PFU/ml per bacteriophage, MOI 10, listed as Fosfomycin 64) was 93.2% and the “Host Range % on all Strains (n = 88), Combination: Antibiotic + CK618 v.2” value ([1]; listed as Fosfomycin 8) was 93.9%. For the same compound, the “Host Range % on all Strains (n = 88), Combination: Antibiotic + CK618 v.2” value ([1]; listed as Fosfomycin 64) was 98.5%.
